The text below walks through data of patent US7435721B2, “Transport peptides such as C-terminal Erns peptide and analogues thereof” (Pepscan Systems B.V., priority 2000, dated 2008).

Residues, ends and D or L forms follow the SMILES beside them. *: point of attachment. Biotin = O=C1N[C@H]2[C@H](CS[C@H]2CCCCC(=O)*)N1 Where only a bound is given, the exact number is not on record here.

One assay concerns live cells in suspension or subconfluent monolayers.
Assay: not given
The format is cell-based.
Conditions: not given
Regarding `CC[C@H](C)[C@H](NC(=O)[C@H](CC(C)C)NC(=O)[C@H](CCCCN)NC(=O)CNC(=O)[C@H](CC(N)=O)NC(=O)CNC(=O)CCCC[C@@H]1SC[C@@H]2NC(=O)N[C@@H]21)C(=O)N[C@@H](CCCCN)C(=O)NCC(=O)N[C@@H](CCCNC(=N)N)C(=O)N[C@H](C(=O)N1CCC[C@H]1C(=O)N[C@H](C(=O)N[C@@H](CCCCN)C(=O)N[C@@H](Cc1ccccc1)C(=O)NCC(=O)N[C@@H](CCCCN)C(=O)N[C@@H](C)C(=O)N[C@@H](CC(=O)O)C(=O)N[C@@H](CS)C(=O)N[C@@H](CC(=O)O)C(=O)N[C@@H](CCCNC(=N)N)C(=O)N1CCC[C@H]1C(=O)N1CCC[C@H]1C(=O)N[C@@H](CCCCN)C(=O)N[C@@H](Cc1c[nH]cn1)C(=O)N[C@@H](CO)C(=O)N[C@@H](CCC(N)=O)C(=O)N[C@@H](CC(N)=O)C(=O)NCC(=O)N[C@@H](CCSC)C(=O)NCC(=O)N[C@@H](CCCCN)C(N)=O)[C@@H](C)CC)[C@@H](C)O` [L3 loop 59-88] (Biotin-GNGKLIKGRTPIKFGKADCDRPPKHSQNGMGK-NH2), the “Translocation activity (in words)” value was “showed translocation activity”.
“Biotin-DRRRRGSRPSGAERRRRRAAAA-NH2 [RSG-1.2]”: the “Concentration (translocation activity of transport peptides)” value amounted to 0.1 µM.
As for “Biotin-DTRQARRNRRRRWRERQRAAAAR-NH2 [HIV-1 Rev]”, the “Concentration (translocation activity of transport peptides)” value is 0.1 µM.
For “Biotin-GNGKLIKGRTPIKFGKADCDRPPKHSQNGM-NH2”, the “Concentration (translocation activity), mapping of restrictocin L3 loop” value (“Concentration … of restrictocin L3 loop” for short) came to 3.0 µM.
With Biotin-GRQLRIAGKRLRGRSK-NH2 [MDR-25], the “Concentration (translocation activity), optimization of E^rns peptide” value worked out at 0.3 µM.
The same measure, in the same setting: the value for Biotin-GRQLRIAGRRLRRRSR-NH2 [MDM-26] was 0.1 µM.
As for Biotin-GRQLRRAGRRLRGRSR-NH2 [MDM-25], the “Concentration (translocation activity), optimization of E^rns peptide” value worked out at 0.1 µM.
On the same count and under the same terms, the value for Biotin-GRQLRRAGRRLRRRSR-NH2 [MDM-27] was 0.1 µM.
With Biotin-KCPSRRPKR-NH2 [Alpha virus E3], the “Concentration (translocation activity of transport peptides)” value was 3.0 µM.
With Biotin-KGRTPIKFGKADCDRPPKHSQNGMGK-NH2, the “Concentration … of restrictocin L3 loop” value stood at 3.0 µM.
With Biotin-KKPGKKTTTKPTKK-NH2 [MDS-23], the “Concentration (translocation activity of transport peptides)” value is 0.3 µM.
Consider “Biotin-KKPGKKTTTKPTKKPTIKTTKK-NH2 [MDS-09]”, for which the “Concentration (translocation activity of transport peptides)” value came out at 0.3 µM.
In the case of Biotin-KKPTIKTTKK-NH2 [MDS-37], the “Concentration (translocation activity of transport peptides)” value turned out to be 0.3 µM.
Biotin-KLIKGRTPIKFGKADCDRPPKHSGK-NH2: the “Concentration … of restrictocin L3 loop” value was found to be 0.3 µM.
The same measure, in the same setting: then Biotin-KLIKGRTPIKFGKADCDRPPKHSQNGK-NH2, with 0.3 µM; and “Biotin-KLIKGRTPIKFGKADCDRPPKHSQNGMGK-NH2”, with 0.3 µM; and Biotin-KLIKGRTPIKFGKARCRRPPKHSGK-NH2, with 0.3 µM.
Turning to Biotin-KRIPNKKPGKK-NH2 [MDS-34], the “Concentration (translocation activity of transport peptides)” value amounted to 0.03 µM.
Same read-out and setting: the value for Biotin-KRIPNKKPGKKT-NH2 [MDP-32] was 0.03 µM; that for Biotin-KRIPNKKPGKKTTTKPTKK-NH2 [MDP-19] was 0.3 µM.

The same assay, now with this note: Table 10.
With `CC[C@H](C)[C@H](NC(=O)[C@H](CC(C)C)NC(=O)[C@H](CCCCN)NC(=O)CNC(=O)[C@H](CC(N)=O)NC(=O)CNC(=O)CCCC[C@@H]1SC[C@@H]2NC(=O)N[C@@H]21)C(=O)N[C@@H](CCCCN)C(=O)NCC(=O)N[C@@H](CCCNC(=N)N)C(=O)N[C@H](C(=O)N1CCC[C@H]1C(=O)N[C@H](C(=O)N[C@@H](CCCCN)C(=O)N[C@@H](Cc1ccccc1)C(=O)NCC(=O)N[C@@H](CCCCN)C(=O)N[C@@H](C)C(=O)N[C@@H](CC(=O)O)C(=O)N[C@@H](CS)C(=O)N[C@@H](CC(=O)O)C(=O)N[C@@H](CCCNC(=N)N)C(=O)N1CCC[C@H]1C(=O)N1CCC[C@H]1C(=O)N[C@@H](CCCCN)C(=O)N[C@@H](Cc1c[nH]cn1)C(=O)N[C@@H](CO)C(=O)N[C@@H](CCC(N)=O)C(=O)N[C@@H](CC(N)=O)C(=O)NCC(=O)N[C@@H](CCSC)C(=O)NCC(=O)N[C@@H](CCCCN)C(N)=O)[C@@H](C)CC)[C@@H](C)O` [L3 loop 59-88] (Biotin-GNGKLIKGRTPIKFGKADCDRPPKHSQNGMGK-NH2), the “Concentration … of restrictocin L3 loop” value was 1.0 µM.

In another assay the test system is Escherichia coli ATCC 25922. As to the kind of experiment: Antimicrobial assay (MIC), E. coli.
Conditions: not given
The format is cell-based. As to the method: Antimicrobial assay. Two bacterial strains (Escherichia coli ATCC 25922 and Enterococcus faecalis ATCC 29212) were inoculated on heart infusion agar with 5% sheep blood and incubated aerobically overnight at 37° C. From the pure cultures, suspensions were made in saline to a density of 0.5 McFarland. These suspensions were diluted ten-fold in Mueller Hinton II broth, resulting in a final inoculum of approximately 10^7 cfu/ml.
Standard 96-well microtiter trays were filled with 100 ill of two-fold dilutions of peptide in physiologic salt solution in each well, resulting in the following concentration range: 4000, 2000, 1000, 500, 250, 125, 62.25, 31.63, 15.82, 7.96 and 0 μg/ml. The trays in column 12 were filled with 200 μl MH II broth (negative control).
Columns 1-11 of the microtiter trays were filled with 100 μl of the final inoculum of the bacterial suspensions, thus diluting the concentrations of the peptide two fold, resulting in the following peptide concentration range in the wells: 2000, 1000, 500, 250, 125, 62.25, 31.63, 15.82, 7.96, 3.98 and 0 μg/ml. In rows B, C and D, 100 μl of the final inoculum of E. coli and, in rows E, F and G, 100 μl of the final inoculum of E. faecalis was pipetted. The final bacterial concentration was approximately 5×10^5 cfu/well. All trays were sealed and incubated overnight at 37° C. After incubation, the microtiter trays were inspected visually for bacterial growth and the absorbance of the cultures at 630 nm (A630) was determined with an ELISA-reader. […] The experiment was performed independently in triplicate. The test was repeated again in triplicate after two days with the final peptide concentration range in the wells: 5000, 2500, 1250, 625, 312.5, 156.25, 78.12, 39.06, 19.58, 9.79, 4.88, 2.44 and 1.22 μg/ml.
Turning to `CC[C@H](C)[C@H](NC(=O)[C@H](CC(C)C)NC(=O)[C@H](CCCCN)NC(=O)CNC(=O)[C@H](CC(N)=O)NC(=O)CNC(=O)CCCC[C@@H]1SC[C@@H]2NC(=O)N[C@@H]21)C(=O)N[C@@H](CCCCN)C(=O)NCC(=O)N[C@@H](CCCNC(=N)N)C(=O)N[C@H](C(=O)N1CCC[C@H]1C(=O)N[C@H](C(=O)N[C@@H](CCCCN)C(=O)N[C@@H](Cc1ccccc1)C(=O)NCC(=O)N[C@@H](CCCCN)C(=O)N[C@@H](C)C(=O)N[C@@H](CC(=O)O)C(=O)N[C@@H](CS)C(=O)N[C@@H](CC(=O)O)C(=O)N[C@@H](CCCNC(=N)N)C(=O)N1CCC[C@H]1C(=O)N1CCC[C@H]1C(=O)N[C@@H](CCCCN)C(=O)N[C@@H](Cc1c[nH]cn1)C(=O)N[C@@H](CO)C(=O)N[C@@H](CCC(N)=O)C(=O)N[C@@H](CC(N)=O)C(=O)NCC(=O)N[C@@H](CCSC)C(=O)NCC(=O)N[C@@H](CCCCN)C(N)=O)[C@@H](C)CC)[C@@H](C)O` [L3 loop 59-88] (Biotin-GNGKLIKGRTPIKFGKADCDRPPKHSQNGMGK-NH2), the “Antibacterial activity (in words)” value is “no antibacterial activity”.

Staying with this assay, now noted: overnight at 37° C.
As to `CC[C@H](C)[C@H](NC(=O)[C@H](CC(C)C)NC(=O)[C@H](CCCCN)NC(=O)CNC(=O)[C@H](CC(N)=O)NC(=O)CNC(=O)CCCC[C@@H]1SC[C@@H]2NC(=O)N[C@@H]21)C(=O)N[C@@H](CCCCN)C(=O)NCC(=O)N[C@@H](CCCNC(=N)N)C(=O)N[C@H](C(=O)N1CCC[C@H]1C(=O)N[C@H](C(=O)N[C@@H](CCCCN)C(=O)N[C@@H](Cc1ccccc1)C(=O)NCC(=O)N[C@@H](CCCCN)C(=O)N[C@@H](C)C(=O)N[C@@H](CC(=O)O)C(=O)N[C@@H](CS)C(=O)N[C@@H](CC(=O)O)C(=O)N[C@@H](CCCNC(=N)N)C(=O)N1CCC[C@H]1C(=O)N1CCC[C@H]1C(=O)N[C@@H](CCCCN)C(=O)N[C@@H](Cc1c[nH]cn1)C(=O)N[C@@H](CO)C(=O)N[C@@H](CCC(N)=O)C(=O)N[C@@H](CC(N)=O)C(=O)NCC(=O)N[C@@H](CCSC)C(=O)NCC(=O)N[C@@H](CCCCN)C(N)=O)[C@@H](C)CC)[C@@H](C)O` [L3 loop 59-88] (Biotin-GNGKLIKGRTPIKFGKADCDRPPKHSQNGMGK-NH2), the “MIC (minimal inhibitory concentration needed to inhibit bacterial growth)” value was >500 µg/mL.
